Bounds are passed on as bounds.

These results are taken from ChEMBL document CHEMBL5500329, “Identification of dihydroquinolizinone derivatives with nitrogen heterocycle moieties as new anti-HBV agents” (Eur J Med Chem, 2024).

In series [1] the test system is Hepatitis B virus. Briefly: Antiviral activity against Hepatitis B virus assessed as inhibition of HbsAg level. It counts as functional, organism-based.
The subject of series [2] is Hepatitis B virus. Briefly: Antiviral activity against Hepatitis B virus assessed as inhibition of HbeAg level. The format is functional, organism-based.
Series [3] deals with Hepatitis B virus. The series can be described thus: Antiviral activity against Hepatitis B virus assessed as inhibition of HBV DNA production. The format is functional, organism-based.
The subject of series [4] is HT-22. Briefly: Cytotoxicity against mouse HT-22 cells assessed as reduction in cell viability at 10 uM. The conditions noted are these: ht-22, 10 µM. The format is toxicity, cell-based.
The nature of series [5]: Cytotoxicity against mouse HT-22 cells assessed as cell viability at 30 uM relative to control. Particulars: read-out: Activity. It counts as toxicity, cell-based.
For series [6], the system named is HT-22. Briefly: Cytotoxicity against mouse HT-22 cells assessed as reduction in cell viability at 30 uM. The format is toxicity, cell-based. Particulars: ht-22, 30 µM.
Series [7] can be described thus: Neurotoxicity in mouse HT-22 cells assessed as reduction in neurite length at 10 uM. It counts as toxicity, cell-based. Particulars: ht-22, 10 µM.
Series [8] is described as follows: Neurotoxicity in mouse HT-22 cells assessed as reduction in neurite length at 30 uM incubated for 48 hrs. The format is toxicity, cell-based. Particulars: ht-22, 48 h.
Series [9] is described as follows: Neurotoxicity in mouse DRG neuron assessed as reduction in neurite length at 10 uM incubated for 24 hrs. The format is toxicity, cell-based.
Series [10] in a line: Half-life in mouse at 10 mg/kg, po administered as single dose. The format is ADME, organism-based. Particulars: in vivo.
Series [11] can be described thus: Tmax in mouse at 10 mg/kg, po administered as single dose. Particulars: in vivo. The format is ADME, organism-based.
Series [12] in a line: Cmax in mouse at 10 mg/kg, po administered as single dose. The format is ADME, organism-based. Particulars: in vivo.
Series [13] can be described thus: AUC (0 to infinity) in mouse at 10 mg/kg, po administered as single dose. The conditions noted are these: in vivo. It counts as ADME, organism-based.
Series [14] can be described thus: MRT (0 to infinity) in mouse at 10 mg/kg, po administered as single dose. The conditions noted are these: in vivo. It counts as ADME, organism-based.
Series [15] is described as follows: Neurotoxicity in mouse HT-22 cells assessed as reduction in neurite length at 10 to 30 uM incubated for 24 to 48 hrs. The format is toxicity, cell-based. The conditions noted are these: ht-22, 30 µM, dose lower 10 µM, time lower 24 hrs, dose upper 30 µM, time upper 48 hrs.
Series [16] can be described thus: Neurotoxicity in PAPD5-knockout mouse HT-22 cells assessed as reduction in neurite length. The format is toxicity, cell-based.
The nature of series [17]: Neurotoxicity in PAPD7-knockout mouse HT-22 cells assessed as reduction in neurite length. The format is toxicity, cell-based.

On to `COc1cc2c(cc1OCCCN1CCC3(C1)OCCO3)C[C@H](C(C)C)n1cc(C(=O)O)c(=O)cc1-2`, for which the figures for the IC50 in the series on Hepatitis B virus [1] and with Hepatitis B virus [2] were 189 nM and 856 nM, respectively.

For the compound `COc1cc2c(cc1N1CCC3(C1)OCCO3)CC(C(C)C)n1cc(C(=O)O)c(=O)cc1-2` (stereo not drawn), the IC50 (usually the concentration needed to halve the response being measured) with Hepatitis B virus [1] amounted to 1.8 nM; in the series with Hepatitis B virus [2] it was 38 nM; with Hepatitis B virus [3], 7.6 nM.

Take `COc1cc2c(cc1OCCCN1CCC3(C1)OCCO3)C[C@@H](C(C)C)n1cc(C(=O)O)c(=O)cc1-2`: the IC50 amounted to 23 nM in the series with Hepatitis B virus [1] and 195 nM in the series with Hepatitis B virus [2]. For the same compound, the Activity entry in the series on HT-22 [4] is given as “Non-Toxic”. Further, in series [5], the viability at 30 µM is 74.9%.

`COc1cc2c(cc1N1CCC3(CCCO3)CC1)CC(C(C)C)n1cc(C(=O)O)c(=O)cc1-2` (stereo not drawn): the IC50 in the series with Hepatitis B virus [1] was determined as 27 nM; in the series with Hepatitis B virus [2], 295 nM; in the series with Hepatitis B virus [3] it was 40 nM.

As for `COc1cc2c(cc1N1CCOCC1)C[C@@H](C(C)C)n1cc(C(=O)O)c(=O)cc1-2`, the IC50 was determined as 23 nM in the series on Hepatitis B virus [1] and 287 nM in the series on Hepatitis B virus [2]. Besides, the Activity entry (in the series with HT-22 [4]; in the series with HT-22 [6]; in [7]; in series [8]; in [9]) was “Non-Toxic” throughout. In addition, the half-life – broadly, the time in which the quantity being followed falls by half – in [10] was 2.09 h. In series [11], the Tmax (commonly the time from dosing to the highest level) stood at 0.58 h. Further, in series [12], the concentration peaked (Cmax) at 7620 ng/mL. Also, in series [13], the AUC(0-inf) (as a rule, total exposure, with the tail of the curve extrapolated) is 23400 ng·h/mL. Moreover, the MRT inf – broadly, a mean duration of stay, worked out from the concentration-time curve – in [14] was found to be 2.69 h.

Consider `COc1cc2c(cc1OC1CCC3(CCOCC3)CC1)CC(C(C)C)n1cc(C(=O)O)c(=O)cc1-2` (stereo not drawn), for which the values for the IC50 in the series on Hepatitis B virus [1], in the series on Hepatitis B virus [2] and in the series with Hepatitis B virus [3] were 151 nM, 47 nM and 38 nM, respectively.

For the compound `COc1cc2c(cc1N1CC3COCC3C1)CC(C(C)C)n1cc(C(=O)O)c(=O)cc1-2` (stereo not drawn), the IC50 is 14 nM in the series on Hepatitis B virus [1], 236 nM in the series with Hepatitis B virus [2] and 64 nM in the series on Hepatitis B virus [3].

With `COc1cc2c(cc1N1CCC3(C1)OCCO3)C[C@@H](C(C)C)n1cc(C(=O)O)c(=O)cc1-2`, the values for the IC50 with Hepatitis B virus [1] and with Hepatitis B virus [2] were 4 nM and 84 nM, respectively. Also, the Activity result in the series with HT-22 [4] and with HT-22 [6] was “Non-Toxic” in each case.

On to `COc1cc2c(cc1N1CCC3(C1)OCCO3)C[C@H](C(C)C)n1cc(C(=O)O)c(=O)cc1-2`, for which the IC50 in the series on Hepatitis B virus [1] is 126 nM; in the series on Hepatitis B virus [2], 668 nM.

For `COCCCOc1cc2c(cc1OC)-c1cc(=O)c(C(=O)O)cn1[C@H](C(C)C)C2`, the values for the IC50 in the series with Hepatitis B virus [1], in the series with Hepatitis B virus [2] and in the series on Hepatitis B virus [3] were 5 nM, 91 nM and 86 nM, respectively. The Activity result was “Non-Toxic” with HT-22 [4]; “Non-Toxic” with HT-22 [6]; “Toxic” in [15]; “Toxic” in [16]; “Toxic” in series [17]. The compound further showed a half-life in [10] of 2.39 h. Further, the Tmax in series [11] was 0.42 h. Further, the highest concentration (Cmax) (as a rule, the highest concentration seen after dosing) in series [12] was found to be 6630 ng/mL. The same compound gave an AUC(0-inf) in series [13] of 10800 ng·h/mL. This compound also had an MRT inf in series [14] of 1.66 h.

For the compound `COc1cc2c(cc1N1CCC3(CCN(C(=O)OC(C)(C)C)CC3)C1)CC(C(C)C)n1cc(C(=O)O)c(=O)cc1-2` (stereo not drawn), the IC50 in the series on Hepatitis B virus [1] turned out to be 16 nM; in the series on Hepatitis B virus [2], 111 nM; in the series with Hepatitis B virus [3] it was 50 nM.

Take `COc1cc2c(cc1OCCCN1CCC3(C1)OCCO3)CC(C(C)C)n1cc(C(=O)O)c(=O)cc1-2` (stereo not drawn): the results for the IC50 with Hepatitis B virus [1], in the series on Hepatitis B virus [2] and with Hepatitis B virus [3] were 33 nM, 319 nM and 47.3 nM, respectively.

Take `COc1cc2c(cc1N1CCC3(CCOCC3)C1)C[C@H](C(C)C)n1cc(C(=O)O)c(=O)cc1-2`: the IC50 in the series on Hepatitis B virus [1] was 100 nM; in the series with Hepatitis B virus [2], 875 nM.

For `COc1cc2c(cc1N1CCC3(CC1)OCCO3)CC(C(C)C)n1cc(C(=O)O)c(=O)cc1-2` (stereo not drawn), the results for the IC50 in the series with Hepatitis B virus [1], with Hepatitis B virus [2] and with Hepatitis B virus [3] were 12 nM, 87 nM and 0.5 nM, respectively.

Consider `COc1cc2c(cc1N1CCC(O)CC1)CC(C(C)C)n1cc(C(=O)O)c(=O)cc1-2` (stereo not drawn), for which the IC50 in the series with Hepatitis B virus [1] was 41 nM; in the series with Hepatitis B virus [2], above 1000 nM; in the series on Hepatitis B virus [3], 300 nM.

For the compound `COc1cc2c(cc1OCCCN1CCC3(CCOC3)C1)CC(C(C)C)n1cc(C(=O)O)c(=O)cc1-2` (stereo not drawn), the IC50 in the series with Hepatitis B virus [1] was 193 nM; in the series with Hepatitis B virus [2], above 1000 nM; in the series with Hepatitis B virus [3], 31 nM.

With `COc1cc2c(cc1N1CCC3(CCOCC3)C1)C[C@@H](C(C)C)n1cc(C(=O)O)c(=O)cc1-2`, the IC50 was 5 nM in the series with Hepatitis B virus [1] and 71 nM in the series with Hepatitis B virus [2]. The Activity entry in the series on HT-22 [4] and with HT-22 [6] was “Non-Toxic” in each case.

In the case of `COc1cc2c(cc1OC[C@@H]1CCCO1)C[C@@H](C(C)C)n1cc(C(=O)O)c(=O)cc1-2`, the IC50 with Hepatitis B virus [1], in the series on Hepatitis B virus [2] and in the series with Hepatitis B virus [3] was 0.6 nM each time.

For the compound `COc1cc2c(cc1N1CCC(C(=O)O)CC1)CC(C(C)C)n1cc(C(=O)O)c(=O)cc1-2` (stereo not drawn), the IC50 with Hepatitis B virus [1] was 1240 nM; with Hepatitis B virus [2] it was above 1000 nM; in the series with Hepatitis B virus [3], 405 nM.

Turning to `COc1cc2c(cc1OCCCN1CCC3(CCCO3)CC1)CC(C(C)C)n1cc(C(=O)O)c(=O)cc1-2` (stereo not drawn), the IC50 in the series with Hepatitis B virus [1] is 62 nM; with Hepatitis B virus [2], above 1000 nM; in the series on Hepatitis B virus [3] it was 217 nM.

Take `COc1cc2c(cc1N1CCOCC1)C[C@H](C(C)C)n1cc(C(=O)O)c(=O)cc1-2`: the results for the IC50 with Hepatitis B virus [1] and in the series with Hepatitis B virus [2] were 599 nM and above 1000 nM, respectively.

On to `COc1cc2c(cc1N1CCC3(CCOC3)C1)CC(C(C)C)n1cc(C(=O)O)c(=O)cc1-2` (stereo not drawn), for which the IC50 with Hepatitis B virus [1] is 5 nM; with Hepatitis B virus [2] it was 62 nM; in the series with Hepatitis B virus [3], 332 nM.

On to `COc1cc2c(cc1N1CCC(C(F)(F)F)CC1)CC(C(C)C)n1cc(C(=O)O)c(=O)cc1-2` (stereo not drawn), for which the IC50 in the series with Hepatitis B virus [1] amounted to 30 nM; in the series on Hepatitis B virus [2], 204 nM; with Hepatitis B virus [3], 80 nM.

Turning to `COc1cc2c(cc1N1CCOCC1)CC(C(C)C)n1cc(C(=O)O)c(=O)cc1-2` (stereo not drawn), the values for the IC50 in the series on Hepatitis B virus [1], with Hepatitis B virus [2] and in the series on Hepatitis B virus [3] were 8 nM, 99 nM and 8 nM, respectively.

For `COc1cc2c(cc1N1CCC3(CCOCC3)C1)CC(C(C)C)n1cc(C(=O)O)c(=O)cc1-2` (stereo not drawn), the IC50 in the series with Hepatitis B virus [1] is 0.6 nM; in the series with Hepatitis B virus [2], 5 nM; in the series with Hepatitis B virus [3], below 1.6 nM.
